In ChEMBL document CHEMBL2331238, “Xanthoquinodins from the endolichenic fungal strain Chaetomium elatum” (J Nat Prod, 2013) one finds IC50 data, which are given here for nine compounds.

The IC50 is the midpoint of a concentration-inhibition curve.

SMILES strings stand for the structures.

Holding throughout (format): functional, cell-based
One assay has as its system SMMC-7721. The assay is described as follows: Cytotoxicity against human SMMC7721 assessed as cell viability measured after 48 hrs by MTT assay. The note with it: SMMC-7721, 48 h. A general note: Formazan colour is commonly taken as a measure of viable cells.
The test system of the next assay is SW480. The assay is described as follows: Cytotoxicity against human SW480 assessed as cell viability measured after 48 hrs by MTT assay. The note with it: SW480, 48 h.
Another assay concerns MCF7. The assay is described as follows: Cytotoxicity against human MCF7 assessed as cell viability measured after 48 hrs by MTT assay. The note with it: MCF7, 48 h.
A further assay concerns A549. The experiment in a line: Cytotoxicity against human A549 assessed as cell viability measured after 48 hrs by MTT assay. The settings on record: A549, 48 h.
A further assay has as its system HL-60. The experiment in a line: Cytotoxicity against human HL60 cells assessed as cell viability measured after 48 hrs by MTT assay. The settings on record: HL-60, 48 h.

Take `CC(=O)O[C@H]1C(=O)[C@@]2(C)[C@H]([C@H](OC(=O)c3ccccc3)[C@]3(O)C[C@H](OC(=O)[C@H](O)[C@@H](NC(=O)c4ccccc4)c4ccccc4)C(C)=C1C3(C)C)[C@]1(OC(C)=O)CO[C@@H]1C[C@@H]2O` [PACLITAXEL]: the IC50 in the assay on SMMC-7721, with SW480, in the assay with MCF7, in the assay with A549 and with HL-60 was less than 0.008 µM in each case.

Consider `COC(=O)[C@@]12Oc3cc4c(c(O)c3C(=O)C1=C(O)CC[C@@H]2O)[C@@H]1C=C[C@@]2(C4)C(=O)c3cc(C)cc(O)c3C(O)=C2C1=O` [XANTHOQUINODIN A1], for which the IC50 in the assay with SMMC-7721 is 8 µM; with SW480, 28.8 µM; with MCF7, 14.2 µM; in the assay on A549, 3.33 µM; with HL-60 it was 6.22 µM.

Consider `COC(=O)[C@]12Oc3cc4c(c(O)c3C(=O)C1=C(O)CC[C@@H]2O)[C@@H]1C=C[C@@]2(C4)C(=O)c3cc(C)cc(O)c3C(O)=C2C1=O` [XANTHOQUINODIN A2], for which the IC50 with SMMC-7721 is 6.77 µM; in the assay on SW480 it was greater than 40 µM; in the assay with MCF7 it was 20.8 µM; in the assay with A549, 4.04 µM; in the assay on HL-60, 5.5 µM.

In the case of `COC(=O)[C@]1([C@@H]2CCC(=O)O2)CC(=O)c2c(cc3c(c2O)[C@@H]2C=C[C@@]4(C3)C(=O)c3cc(C)cc(O)c3C(O)=C4C2=O)O1` [XANTHOQUINODIN A3], the IC50 in the assay on SMMC-7721 is 16.7 µM; in the assay with SW480, 15.5 µM; with MCF7 it was 7.47 µM; in the assay with A549 it was 15.3 µM; in the assay on HL-60 it was 4.18 µM.

As to `COC(=O)[C@]1([C@@H]2CCC(=O)O2)CC(=O)c2c(cc3c(c2O)[C@@H]2C=C[C@]4(C3)C(=C(O)c3c(O)cc(C)cc3[C@@H]4O)C2=O)O1` [XANTHOQUINODIN A4], the IC50 in the assay with SMMC-7721 was 19.2 µM; in the assay on SW480, 18.9 µM; with MCF7 it was 31.2 µM; in the assay with A549 it was 25.5 µM; in the assay on HL-60, greater than 40 µM.

As to `COC(=O)CC[C@H](O)[C@@]1(C(=O)OC)CC(=O)c2c(cc3c(c2O)[C@@H]2C=C[C@]4(C3)C(=C(O)c3c(O)cc(C)cc3[C@@H]4O)C2=O)O1` [XANTHOQUINODIN A5], the IC50 amounted to 16.8 µM in the assay on SMMC-7721; 16.2 µM with SW480; 24 µM in the assay with MCF7; 18.6 µM in the assay on A549; 26.6 µM with HL-60.

On to `COC(=O)[C@]12Oc3cc4c(c(O)c3C(=O)C1=C(O)CC[C@@H]2O)[C@@H]1C=C[C@]2(C4)C(=C(O)c3c(O)cc(C)cc3[C@@H]2O)C1=O` [XANTHOQUINODIN A6], for which the IC50 with SMMC-7721 is 2.87 µM; with SW480, 6.44 µM; with MCF7 it was 5.64 µM; in the assay on A549 it was 2.04 µM; with HL-60, 3.75 µM.

In the case of `COC(=O)[C@]12Oc3c(c(O)cc4c3[C@@H]3C=C[C@]5(C4)C(=C(O)c4c(O)cc(C)cc4[C@@H]5O)C3=O)C(=O)C1=C(O)CC[C@@H]2O` [XANTHOQUINODIN B4], the IC50 is 27.7 µM in the assay on SMMC-7721; greater than 40 µM in the assay with SW480; 30 µM in the assay on MCF7; 25.1 µM with A549; 3.01 µM in the assay with HL-60.

Consider `COC(=O)[C@@]12Oc3c(c(O)cc4c3[C@@H]3C=C[C@]5(C4)C(=C(O)c4c(O)cc(C)cc4[C@@H]5O)C3=O)C(=O)C1=C(O)CC[C@@H]2O` [XANTHOQUINODIN B5], for which the IC50 with SMMC-7721 is 15 µM; in the assay with SW480, greater than 40 µM; in the assay on MCF7, 38.2 µM; in the assay with A549, 11.4 µM; in the assay on HL-60, 4.74 µM.
